Several values for one entry are separate records, joined by “and”; a condition that tells them apart may be missing. Identical values can stand only once.
Experiments:
[1] = molecular target: S31N mutant of M2 (A/M2) (Influenza A virus, UniProt P0DOF5, S31N); type: biochemical; details: 100 µM
[2] = test system: M2-S31N-expressing A/WSN/33; type: cell-based, influenza A virus; details: read-out: A/WSN/33 (S31N) EC50

SMILES	% S31N inhibition [1]	EC50 [2] [µM]
NC12CC3CC(CC(C3)C1)C2 [Compound 1, amantadine, reference compound]	36%	22.5
Brc1ccc(CNC23CC4CC(CC(C4)C2)C3)s1 [Compound 11, N-[(5-bromothiophen-2-yl)methyl]adamantan-1-amine]	76% and 76/N.T. %	1.8

Source: article PMC4286326 (Journal of the American Chemical Society, 2014)
